# Patent EP3403652A1, “PREVENTION AND TREATMENT OF FIBROBLAST GROWTH FACTOR 23 (FGF23)-ASSOCIATED DISORDERS INCLUDING CHRONIC KIDNEY DISEASE (CKD)” (Veterinärmedizinische Universität Wien, priority 2017, dated 2018)
# How the values were obtained:
# renal distal tubules [1] = assay: Intracellular Na+ imaging by 2-photon microscopy in SBFI-loaded live kidney slices ex vivo; assay type: cell-based, mice; conditions: for rFGF23-induced increase in intracellular Na^+ fluorescence (distal tubular Na^+ uptake): co-treatment with 200 ng/ml rFGF23, 2 h, iFGFR pan 120 nM; for decrease of SFBI fluorescence intensity in distal tubules: rFGF23-treated WT kidney slices, CTZ 10 µM
# Protocol: (§1) The preparation of kidney slices for ex vivo experiments was performed as described in Andrukhova O et al. (EMBO J., 2014. 33, 229-246). Longitudinal 200-µm-thick live slices from freshly isolated kidneys of 3-month-old male WT and Klotho/VDR mice were prepared using a Leica VT1000 Vibratome (Leica Microsystems), and were used for ex vivo treatment with various substances as described below.
# (§2) Longitudinal 200-µm-thick live slices of freshly isolated kidneys were prepared using a Leica VT1000 Vibratome (Leica Microsystems). For Na^+ imaging, the kidney slices of WT and Klotho/VDR mice were incubated for 60 min at 37°C with 2 µM of the sodium-sensitive dye SBFI (Molecular Probes), diluted in DMSO (Merck Millipore International) and 20% Pluronic (Merck Millipore International). For Ca^2+ imaging, the kidney slices were incubated for 30 min at 37°C with 2 µM of the calcium-sensitive dye Fluo-4 (Molecular Probes), diluted in DMSO and 20% Pluronic. Thereafter, the slices were washed two times for 20 min each in 0.1M PBS, and were subsequently incubated in vitro with vehicle (PBS), rFGF23 R176/179Q [(100 or 200 ng/ml) kindly provided by Amgen Inc., Thousand Oaks, CA, USA], PD173074 (Sigma-Aldrich) (10 nM for inhibiting FGFR1 and 25 nM for inhibiting FGFR1 and 3), pan FGFR inhibitor [(120 nM) FIIN1 hydrochloride, Tocris Bioscience, Bristol, UK)], WNK signalling inhibitor Closantel (30 ng/mL, generous gift of Dario R. Alessi) alone or combined at 37°C, 5% CO2 / 95% air humidified atmosphere for 2 h. […] For visualization of intracellular Na^+ and Ca^2+ content, SBFI or Fluo-4 were excited by a Ti:sapphire laser (Chameleon, Coherent Inc.) at 820 nm. Images (512 × 512 pixels) were acquired every 30 sec at a depth of 60 - 80 µm. Fluorescence images were analyzed using Image J software. The whole epithelial layer of the distal tubules was selected by manually drawing the region of interest (ROI) to quantify intracellular Na^+ and Ca^2+ levels. Fluorescence intensity was quantified in 4-9 ROIs per image, and the ratio between the fluorescence intensity and the ROI area was calculated for each tubule. This ratio was used for all subsequent calculations.
# (§3) To gain more insight into the functional role of the rFGF23-induced increase in distal renal tubular ion channel expression and the FGF receptors involved, we performed intracellular Ca^2+ and Na^+ imaging by 2-photon microscopy in Fluo-4- or SFBI-loaded and subsequently rFGF23-treated (100 or 200 ng/ml for 2 h), 200-µm-thick renal slices prepared from WT and Klotho/VDR mice.
# (§4) In this example it was assessed whether the Klotho-independent FGF23 signalling pathway is mediated through FGFR3 and/or 4, given that FGFR2 expression was low in distal renal tubules (Figure 12A). To dissect between the latter receptors, Klotho/VDR kidney slices were treated with rFGF23 alone or in combination with an FGFR1/FGFR3 inhibitor and the WNK signalling inhibitor closantel.
# SPAK = SPAK (Homo sapiens, UniProt Q9UEW8); conditions: dose-dependent manner; literature (Yamada et al. 2016; Mori et al. 2013); cited from earlier work
# WNK-SPAK binding = WNK-SPAK binding (Homo sapiens, UniProt Q9UEW8); conditions: literature (Mori et al. 2013); cited from earlier work
# OSR1 = conditions: dose-dependent manner; literature (Yamada et al. 2016); cited from earlier work
# renal distal tubules [2] = assay: Intracellular Ca2+ imaging by 2-photon microscopy in Fluo-4-loaded live kidney slices ex vivo; assay type: cell-based, mice; conditions: co-treatment with 200 ng/ml rFGF23, 2 h, iFGFR pan 120 nM
# Protocol: as §1, §2, §3, §4
# TRPV5 = TRPV5 (Homo sapiens, UniProt Q9NQA5); conditions: 1 µM; literature (Nilius et al. 2001); cited from earlier work
# TRPV6 = target: T1, TRPV6 (Homo sapiens, UniProt Q9H1D0); conditions: 1 µM; literature (Nilius et al. 2001); cited from earlier work
# T1 sequence (Q9H1D0 1-765): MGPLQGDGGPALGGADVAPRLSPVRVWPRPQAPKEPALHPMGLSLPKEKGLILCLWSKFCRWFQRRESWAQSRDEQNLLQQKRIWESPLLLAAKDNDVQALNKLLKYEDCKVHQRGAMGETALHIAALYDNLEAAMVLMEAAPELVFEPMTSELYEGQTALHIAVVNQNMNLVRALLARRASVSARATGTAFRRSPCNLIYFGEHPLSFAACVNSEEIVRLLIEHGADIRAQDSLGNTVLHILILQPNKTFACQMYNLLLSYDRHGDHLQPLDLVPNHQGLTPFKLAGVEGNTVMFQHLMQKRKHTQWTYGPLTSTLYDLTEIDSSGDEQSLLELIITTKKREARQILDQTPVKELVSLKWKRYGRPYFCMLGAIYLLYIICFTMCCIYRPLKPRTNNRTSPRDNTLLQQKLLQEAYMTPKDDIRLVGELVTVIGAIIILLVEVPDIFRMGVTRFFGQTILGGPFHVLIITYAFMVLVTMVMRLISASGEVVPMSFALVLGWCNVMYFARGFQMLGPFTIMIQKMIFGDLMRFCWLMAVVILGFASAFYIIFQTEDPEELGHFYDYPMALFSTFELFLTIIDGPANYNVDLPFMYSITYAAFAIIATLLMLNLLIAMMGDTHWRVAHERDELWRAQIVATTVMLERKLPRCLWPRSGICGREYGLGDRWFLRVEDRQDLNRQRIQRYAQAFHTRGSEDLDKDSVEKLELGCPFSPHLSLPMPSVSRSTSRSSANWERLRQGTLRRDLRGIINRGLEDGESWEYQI
# 5/6 Nx C57BL/6 mice = assay: 5/6 nephrectomy with angiotensin II infusion via osmotic mini-pumps; assay type: in vivo; conditions: AngII- vs. vehicle-treated 5/6-Nx mice, 4 and 8 weeks postsurgery
# Protocol: The 5/6 nephrectomy (5/6 Nx) was performed in two stages (Leelahavanichkul A et al., Kidney Int. 78, 2010. 1136-1153) under isoflurane anesthesia (Fig. 1A). Pain was managed by s.c. injections of buprenorphine, metamizol and meloxicam. Additionally, the animals were treated for 3 days postsurgery with the analgesic piritramid via the drinking water, starting 6 h postsurgery. At the first stage (wk -1), the left kidney was decapsulated to avoid ureter and adrenal damage, and the upper and lower poles were partially resected via a left flank incision. Bleeding was controlled by microfibrillar collagen hemostasis (Avitene, Davol, Cranston, RI). The upper and lower poles were weighed. One week later, the entire right kidney was removed via a right flank incision and weighed. Animals with insufficient kidney resection as determined by a ratio of < 0.55 for the removed left kidney weight to the removed right kidney weight were euthanized. In the Sham surgery control mice, a left flank incision was performed at step 1, both poles of kidney were identified, then the flank incision was closed; a subsequent right flank incision was performed at step 2; the right renal artery was identified, then the flank incision was closed. After each flank incision, muscles and skin were repositioned and sewed. Mortality was tracked throughout the study. Necropsy was not performed on animals that died early.
# Angiotensin II (Ang II) 0.75 µg/kg/min (Sigma) in physiological saline or vehicle was infused by subcutaneous osmotic mini-pumps (Alzet model 1004, Cupertino, CA) (Leelahavanichkul A et al., Kidney Int. 78, 2010. 1136-1153). The osmotic minipumps were inserted subcutaneously at the back under isoflurane anesthesia at 5 days after right NX or Sham surgery (Fig. 1A).
# In order to test susceptibility of C57BL/6 mice to 5/6 nephrectomy (5/6-Nx)- and angiotensin II (AngII) infusion-induced CKD, 5/6-Nx was performed and osmotic minipumps continuously releasing vehicle or AngII were thereafter implanted into male wild-type (WT) C57Bl/6 mice, which were then monitored over 8 weeks after 5/6-Nx. All mice were maintained on rescue diet.
# [3] = Klotho/VDR kidney slices, closantel 30 ng/mL, BF 15 µM, PD173074 10 nM (iFGFR1) or 25 nM (FGFR1/3)
# [4] = Klotho/VDR kidney slices, ruthenium red 10 µM, closantel 30 ng/mL, PD173074 10 nM (iFGFR1) or 25 nM (FGFR1/3)
# [5] = WT kidney slices, ruthenium red 1 µM, iFGFR1 PD173074 10 nM
# [6] = WT kidney slices, iFGFR1 PD173074 10 nM
# TRPV5, sequence (Q9NQA5 whole entry, species assumed): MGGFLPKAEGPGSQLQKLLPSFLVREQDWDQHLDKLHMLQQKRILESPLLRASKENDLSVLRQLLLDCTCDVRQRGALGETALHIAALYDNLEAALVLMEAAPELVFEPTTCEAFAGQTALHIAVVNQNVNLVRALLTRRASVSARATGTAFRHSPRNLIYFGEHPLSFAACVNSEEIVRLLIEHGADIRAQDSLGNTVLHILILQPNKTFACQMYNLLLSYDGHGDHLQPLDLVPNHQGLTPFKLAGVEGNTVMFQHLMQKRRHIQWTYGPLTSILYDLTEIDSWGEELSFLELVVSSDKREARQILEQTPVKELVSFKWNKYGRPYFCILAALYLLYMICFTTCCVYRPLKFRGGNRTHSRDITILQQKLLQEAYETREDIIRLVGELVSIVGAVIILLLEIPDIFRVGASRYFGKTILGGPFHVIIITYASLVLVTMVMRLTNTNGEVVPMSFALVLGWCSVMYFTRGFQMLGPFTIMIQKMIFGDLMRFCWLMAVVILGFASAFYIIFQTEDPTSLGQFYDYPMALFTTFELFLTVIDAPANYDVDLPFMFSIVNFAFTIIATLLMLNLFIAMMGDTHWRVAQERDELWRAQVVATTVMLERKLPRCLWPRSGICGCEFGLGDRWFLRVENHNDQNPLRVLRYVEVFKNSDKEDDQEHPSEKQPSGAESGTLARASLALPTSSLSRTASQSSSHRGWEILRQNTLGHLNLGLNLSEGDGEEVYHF
compound,measurement,setting,value
"CCCCNc1cc(C(=O)O)cc(S(N)(=O)=O)c1Oc1ccccc1 [BF, bumetanide]",rFGF23-induced increase in intracellular Na^+ fluorescence (distal tubular Na^+ uptake),renal distal tubules [1]; [3],inhibited
same,decrease of SFBI fluorescence intensity in distal tubules,renal distal tubules [1]; BF 15 µM,approximately 50%
"NS(=O)(=O)c1cc2c(cc1Cl)N=CNS2(=O)=O [CTZ, chlorothiazide]",decrease of SFBI fluorescence intensity in distal tubules,renal distal tubules [1]; BF 15 µM,approximately 50%
"CCOc1ccc2nc3cc(NCc4ccco4)ccc3c(N)c2c1 [STOCK2S-26016, 7-Ethoxy-N3-(2-furanylmethyl)-3,9-acridinediamine]",SPAK phosphorylation,SPAK,preventing
same,WNK-SPAK binding,WNK-SPAK binding,preventing
"CC(C)(C)NC(=O)c1cncn1C1CCN(c2ccc(-c3nnc(C(F)(F)F)o3)cn2)CC1 [WNK463, N-tert-butyl-3-[1-[5-[5-(trifluoromethyl)-1,3,4-oxadiazol-2-yl]pyridin-2-yl]piperidin-4-yl]imidazole-4-carboxamide]",OSR1 phosphorylation,OSR1,decreases
same,SPAK phosphorylation,SPAK,decreases
"CCN(CC)CCCCNc1ncc2cc(-c3cc(OC)cc(OC)c3)c(NC(=O)NC(C)(C)C)nc2n1 [iFGFR1, PD173074]",rFGF23-induced increase in intracellular Ca^2+ fluorescence (distal tubular Ca^2+ uptake),renal distal tubules [2]; [4],no effect
same,rFGF23-induced increase in intracellular Ca^2+ fluorescence (distal tubular Ca^2+ uptake),"renal distal tubules [2]; Klotho/VDR kidney slices, ruthenium red 10 µM, closantel 30 ng/mL, PD173074 10 nM (iFGFR1) or 25 nM (FGFR1/3), listed as FGFR1/3 inhibitor",partially blocked
same,rFGF23-induced increase in intracellular Ca^2+ fluorescence (distal tubular Ca^2+ uptake),renal distal tubules [2]; [5],largely blocked
same,rFGF23-induced increase in intracellular Na^+ fluorescence (distal tubular Na^+ uptake),renal distal tubules [1]; [3],no effect
same,rFGF23-induced increase in intracellular Na^+ fluorescence (distal tubular Na^+ uptake),"renal distal tubules [1]; Klotho/VDR kidney slices, closantel 30 ng/mL, BF 15 µM, PD173074 10 nM (iFGFR1) or 25 nM (FGFR1/3), listed as FGFR1/3 inhibitor",completely blocked
same,rFGF23-induced increase in intracellular Na^+ fluorescence (distal tubular Na^+ uptake),renal distal tubules [1]; [6],largely blocked
"C=CC(=O)Nc1cccc(CN2C(=O)N(c3c(Cl)c(OC)cc(OC)c3Cl)Cc3cnc(NCCCCN(CC)CC)nc32)c1.Cl [iFGFR pan, FIIN1 hydrochloride]",rFGF23-induced increase in intracellular Ca^2+ fluorescence (distal tubular Ca^2+ uptake),renal distal tubules [2]; [4],completely blocked
same,rFGF23-induced increase in intracellular Ca^2+ fluorescence (distal tubular Ca^2+ uptake),renal distal tubules [2]; [5],completely blocked
same,rFGF23-induced increase in intracellular Na^+ fluorescence (distal tubular Na^+ uptake),renal distal tubules [1]; [3],completely blocked
same,rFGF23-induced increase in intracellular Na^+ fluorescence (distal tubular Na^+ uptake),renal distal tubules [1]; [6],completely blocked
N.N.N.N.N.N.N.N.N.N.N.N.N.N.[Cl-].[Cl-].[Cl-].[Cl-].[Cl-].[Cl-].[O-2].[O-2].[Ru+3].[Ru+3].[Ru+4] [ruthenium red],rFGF23-induced increase in intracellular Ca^2+ fluorescence (distal tubular Ca^2+ uptake),renal distal tubules [2]; [4],antagonize
same,rFGF23-induced increase in intracellular Ca^2+ fluorescence (distal tubular Ca^2+ uptake),renal distal tubules [2]; [5],reversed
same,TRPV5 channel function,TRPV5,block
same,TRPV6 channel function,TRPV6,not
"Angiotensin II (DRVYIHPF; Angiotensin-2; UniProt P01019 25-32, looked up) [AngII, Angiotensin II (Sigma) infused by subcutaneous osmotic mini-pumps]",GFR,5/6 Nx C57BL/6 mice; 0.75 µg/kg/min s.c. infusion,no significant differences
same,azotemia,5/6 Nx C57BL/6 mice,no significant differences
same,mean arterial pressure measured by arterial catheterization,5/6 Nx C57BL/6 mice,no significant differences
same,proteinuria,5/6 Nx C57BL/6 mice,no significant differences
